Measured values from patent US7868188B2, “5-heteroaryl thiazoles and their use as PI3K inhibitors” (AstraZeneca AB, priority 2004, dated 2011).
Where a name gives a salt, the structure may show the parent alone.

Tests used:
[1] = target: T1, p110α Type Ia human PI3K (Homo sapiens, UniProt P42336); assay: Test (a) In Vitro PI3K Enzyme Assay (AlphaScreen); type: biochemical; settings: read-out: IC50 versus p110α PI3K
T1 construct: full length DNA of each of the p110α, p110β and p110δ Type Ia human PI3K p110 isoforms; 6-His; made in house; host or cells: baculovirus expression system (Sf9 is named only for PI3Kγ)
Excerpt: The assay used AlphaScreen technology (Gray et al., Analytical Biochemistry, 2003, 313: 234-245) to determine the ability of test compounds to inhibit phosphorylation by recombinant Type I PI3K enzymes of the lipid PI(4,5)P2.
DNA fragments encoding human PI3K catalytic and regulatory subunits were isolated from cDNA libraries using standard molecular biology and PCR cloning techniques. The selected DNA fragments were used to generate baculovirus expression vectors. In particular, full length DNA of each of the p110α, p110β and p110δ Type Ia human PI3K p110 isoforms (EMBL Accession Nos. HSU79143, S67334, Y10055 for p110α, p110β and p110δ respectively) were sub-cloned into a pDEST10 vector (Invitrogen Limited, Fountain Drive, Paisley, UK). The vector is a Gateway-adapted version of Fastbac1 containing a 6-His epitope tag. A truncated form of Type Ib human PI3K p110γ isoform corresponding to amino acid residues 144-1102 (EMBL Accession No. X8336A) and the full length human p85α regulatory subunit (EMBL Accession No. HSP13KIN) were also sub-cloned into pFastBac1 vector containing a 6-His epitope tag. The Type Ia p110 constructs were co-expressed with the p85α regulatory subunit. Following expression in the baculovirus system using standard baculovirus expression techniques, expressed proteins were purified using the His epitope tag using standard purification techniques.
DNA corresponding to amino acids 263 to 380 of human general receptor for phosphoinositides (Grp1) PH domain was isolated from a cDNA library using standard molecular biology and PCR cloning techniques. The resultant DNA fragment was sub-cloned into a pGEX 4T1 E. coli expression vector containing a GST epitope tag (Amersham Pharmacia Biotech, Rainham, Essex, UK) as described by Gray et al., Analytical Biochemistry, 2003, 313: 234-245). The GST-tagged Grp1 PH domain was expressed and purified using standard techniques.
Test compounds were prepared as […] stock solutions in DMSO and diluted into water as required to give a range of final assay concentrations. Aliquots (2 μl) of each compound dilution were placed into a well of a Greiner 384-well low volume (LV) white polystyrene plate (Greiner Bio-one, Brunel Way, Stonehouse, Gloucestershire, UK Catalogue No. 784075). […]
Biotinylated-DiC8-PI(3,4,5)P3 (50 nM; Cell Signals Inc., Catalogue No. 107), recombinant purified GST-Grp1 PH protein (2.5 nM) and AlphaScreen Anti-GST donor and acceptor beads (100 ng; Packard Bioscience Limited, Station Road, Pangbourne, Berkshire, UK, Catalogue No. 6760603M) were added and the assay plates were left for about 5 to 20 hours at room temperature in the dark. The resultant signals arising from laser light excitation at 680 nm were read using a Packard AlphaQuest instrument. […]

[2] = test system: phosphorylation of Serine 473 in Akt (MDA-MB-468 cells); assay: Test (c) In Vitro phospho-Ser473 Akt Assay; type: cell-based; settings: Homo sapiens, read-out: IC50 versus Serine 473 in Akt
Description: This assay determines the ability of test compounds to inhibit phosphorylation of Serine 473 in Akt as assessed using Acumen Explorer technology (Acumen Bioscience Limited), a plate reader that can be used to rapidly quantitate features of images generated by laser-scanning.
A MDA-MB-468 human breast adenocarcinoma cell line (LGC Promochem, Teddington, Middlesex, UK, Catalogue No. HTB-132) was routinely maintained at 37° C. with 5% CO2 up to a confluency of 70-90% in DMEM containing 10% heat-inactivated FCS and 1% L-glutamine.
For the assay, the cells were detached from the culture flask using ‘Accutase’ (Innovative Cell Technologies Inc., San Diego, Calif., USA; Catalogue No. AT104) using standard tissue culture methods and resuspended in media to give 1.7×10^5 cells per ml. Aliquots (90 μl) were seeded into each of the inner 60 wells of a black Packard 96 well plate (PerkinElmer, Boston, Mass., USA; Catalogue No. 6005182) to give a density of ˜15000 cells per well. Aliquots (90 μl) of culture media were placed in the outer wells to prevent edge effects. The cells were incubated overnight at 37° C. with 5% CO2 to allow them to adhere.
On day 2, the cells were treated with test compounds and incubated for 2 hours at 37° C. with 5% CO2. Test compounds were prepared as 10 mM stock solutions in DMSO and serially diluted as required with growth media to give a range of concentrations that were 10-fold the required final test concentrations. Aliquots (10 μl) of each compound dilution were placed in a well (in triplicate) to give the final required concentrations. As a minimum response control, each plate contained wells having a final concentration of 100 μM LY294002 (Calbiochem, Beeston, UK, Catalogue No. 440202). As a maximum response control, wells contained 1% DMSO instead of test compound. Following incubation, the contents of the plates were […] by treatment with a 1.6% aqueous formaldehyde solution (Sigma, Poole, Dorset, UK, Catalogue No. F1635) at room temperature for 1 hour.
All subsequent aspiration and wash steps were carried out using a Tecan 96 well late washer (aspiration speed 10 mm/sec). The fixing solution was removed and the contents of the plates were washed with phosphate-buffered saline (PBS; 50 μl; Gibco, Catalogue No. 10010015). The contents of the plates were treated for 10 minutes at room temperature with an aliquot (50 μl) of a cell permeabilisation buffer consisting of a mixture of PBS and 0.5% Tween-20. […] An aliquot of PBS (50 μl) was added to each well and the plates were sealed with black plate sealers and the fluorescence signal was detected and analysed.
Fluorescence dose response data obtained with each compound were analysed and the degree of inhibition of Serine 473 in Akt was expressed as an IC50 value.

T1 sequence (P42336 whole entry, canonical isoform): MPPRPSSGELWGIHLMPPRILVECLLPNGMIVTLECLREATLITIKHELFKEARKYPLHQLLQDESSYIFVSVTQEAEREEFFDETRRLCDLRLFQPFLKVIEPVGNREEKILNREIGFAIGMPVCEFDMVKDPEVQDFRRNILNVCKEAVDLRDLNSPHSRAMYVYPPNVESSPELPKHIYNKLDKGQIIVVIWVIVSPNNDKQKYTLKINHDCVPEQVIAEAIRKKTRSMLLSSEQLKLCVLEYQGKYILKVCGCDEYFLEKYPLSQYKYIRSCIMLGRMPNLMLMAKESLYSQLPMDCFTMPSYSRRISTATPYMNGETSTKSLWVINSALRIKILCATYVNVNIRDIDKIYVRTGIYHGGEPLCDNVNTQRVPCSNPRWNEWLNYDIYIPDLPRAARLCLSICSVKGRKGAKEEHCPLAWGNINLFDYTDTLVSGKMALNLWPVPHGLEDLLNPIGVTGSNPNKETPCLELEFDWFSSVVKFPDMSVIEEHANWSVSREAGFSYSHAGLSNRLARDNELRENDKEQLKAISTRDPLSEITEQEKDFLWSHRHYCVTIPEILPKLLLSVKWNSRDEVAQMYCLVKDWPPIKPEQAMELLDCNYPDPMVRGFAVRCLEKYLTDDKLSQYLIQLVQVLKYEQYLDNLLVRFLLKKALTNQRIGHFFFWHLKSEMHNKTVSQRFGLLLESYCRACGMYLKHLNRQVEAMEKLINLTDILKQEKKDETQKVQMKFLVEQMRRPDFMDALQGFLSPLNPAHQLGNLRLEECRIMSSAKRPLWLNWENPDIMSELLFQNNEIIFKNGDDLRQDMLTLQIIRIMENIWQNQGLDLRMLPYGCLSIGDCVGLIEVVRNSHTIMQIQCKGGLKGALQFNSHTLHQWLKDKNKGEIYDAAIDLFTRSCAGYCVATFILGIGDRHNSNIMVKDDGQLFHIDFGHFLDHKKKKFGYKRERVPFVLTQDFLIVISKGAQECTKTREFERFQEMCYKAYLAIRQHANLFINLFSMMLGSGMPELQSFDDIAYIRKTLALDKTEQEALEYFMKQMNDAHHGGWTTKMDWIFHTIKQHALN
T1 sequence (P27986 whole entry partner, canonical isoform): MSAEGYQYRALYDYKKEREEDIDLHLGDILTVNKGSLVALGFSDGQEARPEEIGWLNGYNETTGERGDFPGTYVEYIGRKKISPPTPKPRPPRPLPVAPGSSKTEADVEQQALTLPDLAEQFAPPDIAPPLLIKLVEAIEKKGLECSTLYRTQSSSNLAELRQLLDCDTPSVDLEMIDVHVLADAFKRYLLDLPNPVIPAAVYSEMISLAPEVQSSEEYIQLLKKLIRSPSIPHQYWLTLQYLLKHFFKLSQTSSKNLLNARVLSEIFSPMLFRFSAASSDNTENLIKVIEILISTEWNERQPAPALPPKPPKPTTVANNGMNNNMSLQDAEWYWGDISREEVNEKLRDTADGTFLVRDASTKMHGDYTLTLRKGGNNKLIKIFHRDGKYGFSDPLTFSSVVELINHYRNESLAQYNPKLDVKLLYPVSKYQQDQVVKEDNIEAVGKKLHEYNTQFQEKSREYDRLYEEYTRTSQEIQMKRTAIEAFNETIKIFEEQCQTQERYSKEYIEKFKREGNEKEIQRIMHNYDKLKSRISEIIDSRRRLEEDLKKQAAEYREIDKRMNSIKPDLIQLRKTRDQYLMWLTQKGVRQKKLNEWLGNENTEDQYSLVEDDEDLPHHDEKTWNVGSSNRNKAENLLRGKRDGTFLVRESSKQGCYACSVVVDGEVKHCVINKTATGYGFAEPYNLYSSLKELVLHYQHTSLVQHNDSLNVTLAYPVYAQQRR

- IC50 [1]: ~10 nM
- IC50 [2]: ~20 nM
SMILES: CC(=O)Nc1nc(C)c(-c2cnc(Cl)c(NS(=O)(=O)c3ccccc3)c2)s1 [Example 13, N-{5-[6-Chloro-5-(phenylsulfonylamino)pyridin-3-yl]-4-methyl-1,3-thiazol-2-yl}acetamide trifluoroacetate]
